The nature of data set [1]: In vitro solubility at pH 2 and 6.5. In kind it is physicochemical. To be noted: pH 2, represents stomach; read-out: Solubility (pH 2). On the procedure: Figure 1. Structures, in vitro efficacy, and physicochemical properties of bumped kinase inhibitors (BKIs). […] Solubilities for each BKI were measured at pH 2 and 6.5, to represent the stomach and small intestinal environments, respectively. The human effective permeability (Peff) was predicted as described in Materials and Methods.

For the next data set, the system named is Cryptosporidium. Further details: method as in PMID 28329187. To be noted: cited from earlier work.
The test system of data set [2] is C. parvum. Further details: method as in PMID 28329187. Conditions: previously published study; cited from earlier work.
A further data set relates to Cryptosporidium parvum. As to the kind of experiment: C. parvum growth inhibition, nonpolarized HCT-8 coculture assay. In kind it is cell-based. From the text:
Information regarding C. parvum growth inhibition by BKIs, the hollow fiber model, liquid chromatography–tandem mass spectrometry (LC-MS/MS) methods, and the interferon γ (IFN-γ) knockout (KO) mouse model of C. parvum infection has been described in detail previously [[15], [20–23]]. Information on BKI permeability, LC-MS/MS quantification of elacridar, and quantification of Cryptosporidium by polymerase chain reaction analysis is described in the Supplementary Materials. Unless noted otherwise, statistical significance was determined with an unpaired Student t test, using a significance level of 0.05.
To evaluate the potential impact of P-gp efflux on BKI1318 in vitro efficacy, in vitro assays with polarized and nonpolarized HCT-8 cells were evaluated. The nonpolarized HCT-8 coculture assay to screen anti-Cryptosporidium drug candidates has been previously reported by us in detail. […] Based on the reported elacridar half maximal inhibitor concentration for the inhibition of P-gp, the P-gp activity was predicted to be reduced with both elacridar concentrations. […] Elacridar alone had no effect on C. parvum levels.

The target in a further data set is T1, P-gp (Homo sapiens, UniProt P08183).
T1 construct: endogenous in cells; host or cells: Caco-2 cells (clone C2BBe1, ATCC); assay run by Absorption Systems LP
T1 sequence (P08183 whole entry): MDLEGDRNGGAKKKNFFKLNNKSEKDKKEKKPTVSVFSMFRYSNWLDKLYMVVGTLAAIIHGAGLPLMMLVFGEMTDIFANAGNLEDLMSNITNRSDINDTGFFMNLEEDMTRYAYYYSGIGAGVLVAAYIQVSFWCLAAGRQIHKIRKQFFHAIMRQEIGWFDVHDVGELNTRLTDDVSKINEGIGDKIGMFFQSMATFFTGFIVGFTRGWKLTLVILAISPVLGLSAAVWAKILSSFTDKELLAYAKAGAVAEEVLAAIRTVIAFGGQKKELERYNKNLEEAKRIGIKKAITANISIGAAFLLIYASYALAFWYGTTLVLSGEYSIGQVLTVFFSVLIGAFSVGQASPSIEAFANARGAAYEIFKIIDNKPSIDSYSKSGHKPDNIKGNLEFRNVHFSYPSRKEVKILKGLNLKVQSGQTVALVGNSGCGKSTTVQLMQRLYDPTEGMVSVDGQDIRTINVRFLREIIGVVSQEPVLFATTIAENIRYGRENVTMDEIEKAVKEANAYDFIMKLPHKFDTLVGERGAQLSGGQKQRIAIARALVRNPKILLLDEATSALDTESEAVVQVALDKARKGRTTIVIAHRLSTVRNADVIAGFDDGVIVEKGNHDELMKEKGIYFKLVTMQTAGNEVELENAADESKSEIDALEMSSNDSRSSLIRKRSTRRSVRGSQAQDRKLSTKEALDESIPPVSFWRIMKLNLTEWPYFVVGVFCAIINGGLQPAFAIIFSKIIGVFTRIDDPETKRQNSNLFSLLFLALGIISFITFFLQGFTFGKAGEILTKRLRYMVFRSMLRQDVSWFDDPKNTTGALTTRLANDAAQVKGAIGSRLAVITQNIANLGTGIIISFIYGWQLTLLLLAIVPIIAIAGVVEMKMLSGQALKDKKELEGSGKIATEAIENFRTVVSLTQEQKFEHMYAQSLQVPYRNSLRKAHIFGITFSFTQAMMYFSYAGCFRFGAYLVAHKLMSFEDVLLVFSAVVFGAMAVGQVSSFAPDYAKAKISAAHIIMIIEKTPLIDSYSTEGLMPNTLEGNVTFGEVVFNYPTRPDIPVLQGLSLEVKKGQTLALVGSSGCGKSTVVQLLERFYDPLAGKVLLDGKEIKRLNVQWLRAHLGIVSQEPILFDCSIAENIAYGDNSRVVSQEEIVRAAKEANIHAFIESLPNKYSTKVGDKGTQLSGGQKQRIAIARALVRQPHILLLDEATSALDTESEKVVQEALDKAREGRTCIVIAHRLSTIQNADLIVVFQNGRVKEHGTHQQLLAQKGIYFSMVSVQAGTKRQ
As to the kind of experiment: Caco-2 P-gp efflux assay +/- valspodar. In kind it is in vitro ADME. To be noted: Caco-2. From the text:
Given the well-known role of P-gp in the efflux of many diverse drugs, the adenosine triphosphate–binding cassette (ABC) transporter was specifically chosen for initial studies, to identify the transporter responsible for BKI1318’s relatively low Papp. A Caco-2 system with overexpression of P-gp was used to verify the role of P-gp in BKI1318 transport (Supplementary Table 2). […] It should be noted that this experiment characterized the importance of P-gp with a single concentration of BKI1318. The kinetics of BKI1318 transport mediated by P-gp are still unknown, and it is not clear how the fraction of absorption mediated by P-gp transport will change with different concentrations of BKI1318.
(§1) To ensure no damage was inflicted to the cell monolayers during the flux period, lucifer yellow flux was also measured post-experimentally for each monolayer. To determine whether BKIs 1294, 1369, and 1318 were substrates of P-gp in vitro, P-gp efflux was characterized using the Caco-2 permeability assay protocol with a few modifications. The dosing solution concentration was 5 μM of BKI in the assay buffer +/- 1 μM valspodar. Cells were first pre-incubated for 30 minutes with HBSS containing +/- 1 μM valspodar. Cell monolayers were dosed on the apical side (A?B) or basolateral side (B?A), and incubated at 37°C with 5% CO2 in a humidified incubator. Samples were taken from the donor and receiver chambers at 120 minutes. Each determination was performed in duplicate.

The nature of data set [3]: Caco-2 trans-well apparent permeability assay. The class given is in vitro ADME. Conditions: human, pH 7.4. On the procedure:
To initially characterize the permeability of BKIs 1294, 1369, and 1318, the software MedChem Designer (Simulations +, Lancaster, CA) was used to predict the Peff. The in vitro apparent permeability (Papp) was carried out by Absorption Systems LP (Exton, PA) with a Caco-2 trans-well assay. Caco-2 cells (clone C2BBe1) were obtained from American Type Culture Collection (Manassas, VA) were grown to confluence on collagen-coated, microporous membranes in 12-well assay plates. The permeability assay buffer was Hanks’ balanced salt solution (HBSS) containing 10 mM HEPES and 15 mM glucose at a pH of 7.4. The buffer in the receiver chamber also contained 1% bovine serum albumin. The dosing solution concentration was 5 µM BKI in assay buffer, and the cell monolayers were dosed on the apical side (A?B) or basolateral side (B?A) and incubated at 37°C with 5% CO2 in a humidified incubator. After 120 minutes, samples were taken from the donor and receiver chambers in duplicate. The Papp was calculated with equation (1) and the percent recovery with equation (2).
Papp = (dCr/dt) × Vr/(A × CA) (1)
Percent Recovery = 100 × ((Vr × Cr^final) + (Vd × Cd^final))/(Vd × […]) (2)
where dCr/dt is the slope of the cumulative concentration in the receiver compartment versus time in µM s^-1; Vr is the volume of the receiver compartment in cm^3; Vd is the volume of the donor compartment in cm^3; A is the area of the insert (1.13 cm^2 for 12-well); CA is the average of the nominal dosing concentration and the measured 120 minute donor concentration in µM; CN is the nominal concentration of the dosing solution in µM; Cr^final is the cumulative receiver concentration in µM at the end of the incubation period; Cd^final is the concentration of the donor in µM at the end of the incubation period.
as §1
For orientation: Caco-2 cells form a polarised layer with tight junctions and transporters.

The subject of data set [4] is C. parvum. The data set can be described thus: Hollow fiber in vitro Cryptosporidium culture with polarized HCT-8 cells. In kind it is cell-based, Cryptosporidium parvum. The method, then: C. parvum was cultured using a hollow fiber bioreactor modified for evaluation of potential chemotherapeutic compounds [[21–23]]. Briefly, the system used a 20-kD MWCO polysulfone fiber cartridge (FiberCell Systems, Frederick, MD). HCT-8 cells were grown on the outer surface of the fibers (extracapillary space), and reservoirs were used to provide nutrients to the cells. When the glucose concentration decreased to at least 2 g/L, the extracapillary space was inoculated with 10^6C. parvum (Iowa isolate, Bunch Grass Farms, Deary, ID). […] Compound concentration was reduced over time by the flow of medium through the extracapillary and intracapillary spaces. Samples were removed from the extracapillary space once per day for evaluation of parasite numbers.
C. parvum growth was determined by analysis of the amount of C. parvum 18S-rRNA present and compared to the HCT-8 18S-rRNA as previously described^3. Briefly this was performed by centrifugation at 14,000 x g for 5 min of 0.5 mL samples collected from the extracapillary space (ECS). The pellet was resuspended in 100 µL of iScript buffer and subject to 6-freeze/thaw cycles comprising 1 min in liquid nitrogen followed by 1.5 min at 70 °C. The lysate was collected by centrifugation at 16,162 x g for 5 min, and the RNA purified according to the manufacturer’s instructions (iScriptTM, RT-qPCR sample preparation kit, Bio-Rad Laboratories). C. parvum was enumerated by quantitating the Cp18S-rRNA using the following specific forward and reverse primers - Cp18S-995F: 5’-[…]-3’ and Cp18S-1206R: 5’-[…]-3’ and compared to the human Hs18S-rRNA using the following primer sets - Hs18S-F1373: 5’-[…]-3’ and Hs18S-R1561: 5’-[…]-3’. The amount of 18S-rRNA was determined using 5 ng samples by RT-qPCR as described the manufacturer instructions using a Luna Universal One-Step® RT-qPCR kit (New England Biologics) and a Quant Studio 6 Flex 44 instrument. The cell number is calculated from the CT means using a set of standards prepared from 10^4, 10^5, and 10^6 C. parvum oocysts and compared to 10^4, 10^5, and 10^6 HCT-8 cells.

Data set [5] in a line: Mouse gastrointestinal tissue pharmacokinetics. The class given is in vivo, mice. To be noted: mouse, oral; for AUC(0-t): read-out: AUC0-12; for Cmax: read-out: Observed Cmax; for Tmax: read-out: Tmax.
Procedure: At multiple time points following BKI1318 administration, mice were euthanized, and the GI tract was separated into segments corresponding to the duodenum, jejunum, ileum, and cecum/colon. […] At 0.5, 1, 2, 4, 8, and 12 hours, three mice in each group were sacrificed by cervical dislocation, and the duodenum, jejunum, ileum, and cecum/ascending colon were immediately collected. Each section of the GI tract was flushed with Dulbecco's phosphate-buffered saline, weighed, and placed in storage at -80°C. On the day of homogenization, 0.9% NaCl was added to each sample to achieve 200 mg/mL tissue concentration. Samples were homogenized using a handheld motorized homogenizer (Fisher Scientific, Waltham, MA) on ice and stored at -20°C until extraction and analysis. To report tissue concentrations, 1 gram of tissue was estimated to be 1 mL of volume.
Data set [6] has as its system C. parvum. As to the kind of experiment: IFN-γ KO mouse model of Cryptosporidium infection. The class given is in vivo, mice. Conditions: IFN-γ KO mice. The method, then: Efficacy in female IFN-γ KO mice (B6.129S7-Ifngtm1Ts/J; Jackson Laboratories) aged 8–10 weeks was evaluated as previously described. Beginning on day 6 after infection, mice were dosed with 30 mg/kg BKI1318 suspended in 0.2 mL of vehicle, 15 mg/kg elacridar in 0.1 mL of vehicle followed 15 minutes later by 30 mg/kg BKI1318 in 0.1 mL of vehicle, or 0.2 mL of vehicle only once daily for 5 days. Fecal specimens were collected daily from each group and weighed. Each fecal sample was checked for luminescence on the day of collection, and the number of relative light units was determined and normalized to fecal sample weights.

Setting [7] is: cecum/colon, elacridar in Cecum/Colon.
[8] abbreviates: duodenum, elacridar in Duodenum.

Usually solubility stands for how much of the substance goes into solution per volume. The EC50 is the midpoint of the concentration-response curve. The Papp A→B is the apparent permeability from the apical to the basolateral side of a cell layer. A word on the Papp B→A: it is how fast a substance crosses the layer from the basolateral side. In general, Cmax refers to the maximum level reached in the sampled fluid or tissue. Usually Tmax stands for the time from dosing to the highest level.

Like-named read-outs stand apart in the source and are kept apart here. Some results are limits rather than exact numbers.

With `CCOc1ccc2cc(-c3nn(CC4CCN(C)CC4)c4ncnc(N)c34)ccc2c1` [BKI1294], the solubility in data set [1] was above 100 µM. Besides, the “Efficacy in neonatal mouse model of Cryptosporidium infection” value in the data set with Cryptosporidium is reported as “efficacious”. The “C. parvum reduction in mouse model of cryptosporidiosis” value in the data set on C. parvum [2] is above 2 log. Besides, the EC50 in the data set on Cryptosporidium parvum (Cryptosporidium parvum, HCT-8, in vitro, read-out: C. parvum EC50) worked out at 2700 nM. For the same molecule, on P-gp, the “P-gp Substrate Classification” value is on record as “Negative”. In data set [3] (Caco-2 assay, A→B for BKI 1294, read-out: Percent recovery), the recovery at 120 min, 5 µM turned out to be 62%. For the same molecule, in data set [3] (Caco-2, 5 µM, 120 minutes), the apical-to-basolateral permeability (Papp A→B) at 120 min, 5 µM was found to be 12.7 ×10⁻⁶ cm/s and the Papp B→A at 120 min, 5 µM stood at 22.6 ×10⁻⁶ cm/s. In addition, the “Reduction of C. parvum levels over the course of the study” value in the data set on C. parvum [4] (hollow fiber model, polarized HCT-8 cells) is recorded as > 3 orders of magnitude. Besides, the “Reduction in C. parvum level by 24 hours after the final dose, on day 4” value with C. parvum [4] (hollow fiber, once per day for 4 days, BKI1294 80 µM, BKI1369 40 µM) was above 6 log.
Regarding `CC(C)NCC(O)COc1cccc2ccccc12` (stereo not drawn) [Propranolol, reference compound], the apparent permeability from apical to basolateral (Papp A→B) at 120 min, 5 µM in data set [3] (Caco-2, 5 µM, 120 minutes) came out at 23.2 ×10⁻⁶ cm/s.
Take `COc1cc2c(cc1OC)CN(CCc1ccc(NC(=O)c3cccc4c(=O)c5cccc(OC)c5[nH]c34)cc1)CC2` [elacridar, reference compound]: the AUC(0-t) is 12.6 ± 8.5 µM·h in data set [5] (setting [7]); 118 ± 4.9 µM·h in data set [5] (setting [8]); 170 ± 45.7 µM·h in data set [5] (ileum, elacridar in Ileum); 104 ± 21.4 µM·h in [5] (jejunum, elacridar in Jejunum). Besides, the Cmax in data set [5] (setting [7]) is 3.3 ± 3.1 µM; in data set [5] (setting [8]), 61.2 µM; in [5] (ileum, elacridar in Ileum), 35.2 µM; in data set [5] (jejunum, elacridar in Jejunum) it was 32.6 µM. Moreover, the Tmax in data set [5] (setting [7]) was 6 h; in data set [5] (setting [8]), 0.6 h; in [5] (ileum, elacridar in Ileum) it was 1.7 h; in data set [5] (jejunum, elacridar in Jejunum), 0.6 h. Moreover, the “Effect on C. parvum levels” value in the data set on Cryptosporidium parvum (nonpolarized HCT-8 cells, compound alone) is listed as “no effect”. The “Effect on Cryptosporidium infection, administered alone” value in the data set on C. parvum [6] is “no effect”. The “Effect on C. parvum levels/growth” value in the data set with C. parvum [4] (hollow fiber model, compound alone, 80 µM once daily) is recorded as “no effect”.
Consider `C[C@H]1O[C@@H](O[C@H]2[C@@H](O)C[C@H](O[C@H]3[C@@H](O)C[C@H](O[C@H]4CC[C@@]5(C)[C@H](CC[C@@H]6[C@@H]5C[C@@H](O)[C@]5(C)[C@@H](C7=CC(=O)OC7)CC[C@]65O)C4)O[C@@H]3C)O[C@@H]2C)C[C@H](O)[C@@H]1O` [digoxin, reference compound], for which the “P-gp Substrate Classification” value at P-gp is recorded as “Positive”.

(Values after publication PMC6736360, “P-Glycoprotein–Mediated Efflux Reduces the In Vivo Efficacy of a Therapeutic Targeting the Gastrointestinal Parasite Cryptosporidium” (The Journal of Infectious Diseases, 2019).)
